Legend:
[1] = Pharmacokinetics of 5-MeO-DMT and bufotenine after inhalation; format: in vivo, human
Description: Blood samples were obtained at 1; 2; 4; 7; 10; 15; 20; 30; 45 min and 1; 1.5; 2; 3; 4 hours after administration.
PK parameters were generated by algebraic analysis of the concentration versus time plots for each individual. The analysis was carried out using the software Phoenix WinNonlin 6.3.

[2] = test system: patients with treatment-resistant major depressive disorder (TRD); test: Phase 1/2 clinical trial of inhaled 5-MeO-DMT in TRD; details: for Patients who experienced at least one ADR: n=4; for Patients with MADRS remission: n=4, day seven after dosing
Description: Patients were assigned to different groups. In the context of the present invention, the group who received a single, 12 mg dose and the group who underwent an intra-day individualized dosing regimen (IDR) that allowed for multiple, escalating doses (6 mg, 12 mg and 18 mg) within a single day, driven by the intensity of the patient-reported psychedelic experience are of interest.
This trial was designed in two parts. Part A was an open-label, single-arm, single-dose Phase 1 trial with two dose levels (12 mg (n=4) and 18 mg (n=4)). […] The primary endpoint of Part B was to assess the effects on the severity of depression, as assessed by the proportion of patients in remission on day seven after dosing, defined as a MADRS total score of less than or equal to 10.

[3] = TRD, 12 mg n=4, 2 hours after dose, baseline 16
[4] = TRD, 12 mg n=4, 3 hours after dose, baseline 18
[5] = TRD, 12 mg n=4, 3 hours after dose, baseline 25
[6] = TRD, 12 mg n=4, day 1, baseline 12
[7] = TRD, 12 mg n=4, day 1, baseline 13
[8] = TRD, 12 mg n=4, day 1, baseline 16
[9] = TRD, 12 mg n=4, day 1, baseline 25
[10] = TRD, 12 mg n=4, day 7, baseline 12
[11] = TRD, 12 mg n=4, day 7, baseline 13
[12] = TRD, 12 mg n=4, day 7, baseline 16
[13] = TRD, 12 mg n=4, day 7, baseline 25
[14] = TRD, IDR n=8, 2 hours after last dose, baseline 27
[15] = TRD, IDR n=8, 2 hours after last dose, baseline 28
[16] = TRD, IDR n=8, day 1, baseline 25
[17] = TRD, IDR n=8, day 1, baseline 27
[18] = TRD, IDR n=8, day 7, baseline 25
[19] = TRD, IDR n=8, day 7, baseline 27
[20] = TRD, IDR n=8, day 7, baseline 30

COc1ccc2[nH]cc(CCN(C)C)c2c1 [5-MeO-DMT]
Detectability in plasma ([1]; 3 hours after inhalation, whole dose range 6, 12, 18 mg): no longer detectable
Pharmacokinetic measurements with uptitration dosing schemes ([1]; compared with single doses): Substantially similar results
Changes in safety laboratory analyses, vital signs, psychiatric safety assessments, measures of cognitive function ([2]; Part A and Part B): No clinically significant changes
SAEs reported ([2]; Part A, 12 mg and 18 mg groups): No SAEs
Patients who experienced at least one ADR ([2]; Part A, 12 mg single dose): 3 of 4
Patients with MADRS remission ([2]; Part A, 12 mg): 50%
Patients who experienced at least one ADR ([2]; Part A, 18 mg single dose): 3 of 4
Patients with MADRS remission ([2]; Part A, 18 mg): 25%
Outcome of ADRs ([2]; Part B, IDR, n=8): All ADRs resolved spontaneously
SAEs reported ([2]; Part B, IDR, n=8): No SAEs
MADRS Suicidal Thoughts, sum of patient scores ([2]; TRD, 12 mg n=4, 2 hours after dose, baseline 8): 3
MADRS Inner Tension, sum of patient scores ([2]; TRD, 12 mg n=4, 2 hours after dose, baseline 13): 2
MADRS Concentration Difficulties, sum of patient scores [2, 3]: 7
MADRS Inability to Feel, sum of patient scores [2, 3]: 9
MADRS Lassitude, percentage improvement [2, 3]: 38%
MADRS Lassitude, sum of patient scores [2, 3]: 10
MADRS Pessimistic Thoughts, percentage improvement [2, 3]: 50.00%
MADRS Pessimistic Thoughts, sum of patient scores [2, 3]: 8
BPRS Blunted Affect, sum of patient scores ([2]; TRD, 12 mg n=4, 3 hours after dose, baseline 11): 8
BPRS Emotional Withdrawal, sum of patient scores ([2]; TRD, 12 mg n=4, 3 hours after dose, baseline 13): 11
BPRS Tension, sum of patient scores ([2]; TRD, 12 mg n=4, 3 hours after dose, baseline 14): 9
BPRS Guilt Feelings, percentage improvement [2, 4]: 50.00%
BPRS Guilt Feelings, sum of patient scores [2, 4]: 9
BPRS Anxiety, percentage improvement [2, 5]: 56.00%
BPRS Anxiety, sum of patient scores [2, 5]: 11
MADRS Suicidal Thoughts, sum of patient scores ([2]; TRD, 12 mg n=4, day 1, baseline 8): 5
BPRS Blunted Affect, sum of patient scores ([2]; TRD, 12 mg n=4, day 1, baseline 11): 6
MADRS Reduced Sleep, percentage improvement [2, 6]: 17%
MADRS Reduced Sleep, sum of patient scores [2, 6]: 10
BPRS Emotional Withdrawal, sum of patient scores [2, 7]: 8
MADRS Inner Tension, sum of patient scores [2, 7]: 3
BPRS Tension, sum of patient scores ([2]; TRD, 12 mg n=4, day 1, baseline 14): 6
MADRS Concentration Difficulties, sum of patient scores [2, 8]: 2
MADRS Inability to Feel, sum of patient scores [2, 8]: 1
MADRS Lassitude, percentage improvement [2, 8]: 100%
MADRS Lassitude, sum of patient scores [2, 8]: 0
MADRS Pessimistic Thoughts, sum of patient scores [2, 8]: 7
BPRS Guilt Feelings, sum of patient scores ([2]; TRD, 12 mg n=4, day 1, baseline 18): 5
BPRS Anxiety, percentage improvement [2, 9]: 76.00%
BPRS Anxiety, sum of patient scores [2, 9]: 6
MADRS Suicidal Thoughts, sum of patient scores ([2]; TRD, 12 mg n=4, day 7, baseline 8): 7
BPRS Blunted Affect, sum of patient scores ([2]; TRD, 12 mg n=4, day 7, baseline 11): 5
MADRS Reduced Sleep, percentage improvement [2, 10]: 50%
MADRS Reduced Sleep, sum of patient scores [2, 10]: 6
BPRS Emotional Withdrawal, sum of patient scores [2, 11]: 6
MADRS Inner Tension, sum of patient scores [2, 11]: 5
BPRS Tension, sum of patient scores ([2]; TRD, 12 mg n=4, day 7, baseline 14): 6
MADRS Concentration Difficulties, sum of patient scores [2, 12]: 3
MADRS Inability to Feel, sum of patient scores [2, 12]: 1
MADRS Lassitude, percentage improvement [2, 12]: 81%
MADRS Lassitude, sum of patient scores [2, 12]: 3
MADRS Pessimistic Thoughts, percentage improvement [2, 12]: 50.00%
MADRS Pessimistic Thoughts, sum of patient scores [2, 12]: 8
BPRS Guilt Feelings, sum of patient scores ([2]; TRD, 12 mg n=4, day 7, baseline 18): 5
BPRS Anxiety, percentage improvement [2, 13]: 76.00%
BPRS Anxiety, sum of patient scores [2, 13]: 6
MADRS Suicidal Thoughts, sum of patient scores ([2]; TRD, IDR n=8, 2 hours after last dose, baseline 11): 3
MADRS Inner Tension, sum of patient scores ([2]; TRD, IDR n=8, 2 hours after last dose, baseline 26): 11
MADRS Lassitude, percentage improvement [2, 14]: 63%
MADRS Lassitude, sum of patient scores [2, 14]: 10
MADRS Pessimistic Thoughts, percentage improvement [2, 15]: 75.00%
MADRS Pessimistic Thoughts, sum of patient scores [2, 15]: 7
MADRS Concentration Difficulties, sum of patient scores ([2]; TRD, IDR n=8, 2 hours after last dose, baseline 30): 11
MADRS Inability to Feel, sum of patient scores ([2]; TRD, IDR n=8, 2 hours after last dose, baseline 36): 12
BPRS Emotional Withdrawal, sum of patient scores ([2]; TRD, IDR n=8, 3 hours after last dose, baseline 13): 8
BPRS Blunted Affect, sum of patient scores ([2]; TRD, IDR n=8, 3 hours after last dose, baseline 15): 11
BPRS Tension, sum of patient scores ([2]; TRD, IDR n=8, 3 hours after last dose, baseline 16): 11
BPRS Guilt Feelings, sum of patient scores ([2]; TRD, IDR n=8, 3 hours after last dose, baseline 34): 14
BPRS Anxiety, sum of patient scores ([2]; TRD, IDR n=8, 3 hours after last dose, baseline 37): 19
MADRS Suicidal Thoughts, sum of patient scores ([2]; TRD, IDR n=8, day 1, baseline 11): 1
BPRS Emotional Withdrawal, sum of patient scores ([2]; TRD, IDR n=8, day 1, baseline 13): 8
BPRS Blunted Affect, sum of patient scores ([2]; TRD, IDR n=8, day 1, baseline 15): 8
BPRS Tension, sum of patient scores ([2]; TRD, IDR n=8, day 1, baseline 16): 11
MADRS Reduced Sleep, percentage improvement [2, 16]: 52%
MADRS Reduced Sleep, sum of patient scores [2, 16]: 12
MADRS Inner Tension, sum of patient scores ([2]; TRD, IDR n=8, day 1, baseline 26): 6
MADRS Lassitude, percentage improvement [2, 17]: 81%
MADRS Lassitude, sum of patient scores [2, 17]: 5
MADRS Pessimistic Thoughts, sum of patient scores ([2]; TRD, IDR n=8, day 1, baseline 28): 4
MADRS Concentration Difficulties, sum of patient scores ([2]; TRD, IDR n=8, day 1, baseline 30): 1
BPRS Guilt Feelings, sum of patient scores ([2]; TRD, IDR n=8, day 1, baseline 34): 11
MADRS Inability to Feel, sum of patient scores ([2]; TRD, IDR n=8, day 1, baseline 36): 2
BPRS Anxiety, sum of patient scores ([2]; TRD, IDR n=8, day 1, baseline 37): 16
MADRS Suicidal Thoughts, sum of patient scores ([2]; TRD, IDR n=8, day 7, baseline 11): 3
BPRS Emotional Withdrawal, sum of patient scores ([2]; TRD, IDR n=8, day 7, baseline 13): 8
BPRS Blunted Affect, sum of patient scores ([2]; TRD, IDR n=8, day 7, baseline 15): 8
BPRS Tension, sum of patient scores ([2]; TRD, IDR n=8, day 7, baseline 16): 10
MADRS Reduced Sleep, percentage improvement [2, 18]: 64%
MADRS Reduced Sleep, sum of patient scores [2, 18]: 9
MADRS Inner Tension, sum of patient scores ([2]; TRD, IDR n=8, day 7, baseline 26): 12
MADRS Lassitude, percentage improvement [2, 19]: 89%
MADRS Lassitude, sum of patient scores [2, 19]: 3
MADRS Pessimistic Thoughts, sum of patient scores ([2]; TRD, IDR n=8, day 7, baseline 28): 3
MADRS Concentration Difficulties, percentage improvement [2, 20]: 70.00%
MADRS Concentration Difficulties, sum of patient scores [2, 20]: 9
BPRS Guilt Feelings, sum of patient scores ([2]; TRD, IDR n=8, day 7, baseline 34): 10
MADRS Inability to Feel, sum of patient scores ([2]; TRD, IDR n=8, day 7, baseline 36): 6
BPRS Anxiety, sum of patient scores ([2]; TRD, IDR n=8, day 7, baseline 37): 17
